Tests used:
Experiment in all cases: NCI-60 SRB screen
Assay type in all cases: cell-based
HCT-15 = conditions: Homo sapiens; HCT-15, 10^–5 Molar; read-out: Percent growth inhibition
Procedure, shortened: (§1)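 Percent growth inhibition at 10^−5 M, 48 h. Sulforhodamine B read-out at […] following cold TCA fixation; Tz plates fixed when compound was added.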

M14 = conditions: Homo sapiens; M14, 10^–5 Molar; read-out: Percent growth inhibition
Procedure, shortened: as §1

SW-620 = conditions: Homo sapiens; SW-620, 10^–5 Molar; read-out: Percent growth inhibition
Procedure, shortened: as §1

EKVX = conditions: Homo sapiens, 10^–5 Molar, read-out: Percent growth inhibition
Procedure, shortened: as §1

A498 = conditions: Homo sapiens; A498, 10^–5 Molar; read-out: Percent growth inhibition
Procedure, shortened: (§2)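 Testing used one 10^−5 M dose. Plates were incubated 48 h at 37 °C in 5% CO2 before fixation, staining with 0.4% (w/v) SRB in 1% acetic acid, solubilisation in trizma base and reading at […].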

PC-3 = conditions: Homo sapiens; PC-3, 10^–5 Molar; read-out: Percent growth inhibition
Procedure, shortened: as §2

MDA-MB-231/ATCC = conditions: Homo sapiens, 10^–5 Molar, read-out: Percent growth inhibition
Procedure, shortened: as §2

SF-539 = conditions: Homo sapiens; SF-539, 10^–5 Molar; read-out: Percent growth inhibition
Procedure, shortened: as §1

RXF 393 = conditions: Homo sapiens, 48 h; RXF 393, 10^–5 Molar; read-out: Percent growth inhibition
Procedure, shortened: as §1

MCF7 = conditions: Homo sapiens; MCF7, 10^–5 Molar; read-out: Percent growth inhibition
Procedure, shortened: as §1

A549/ATCC = conditions: Homo sapiens, 10^–5 Molar, read-out: Percent growth inhibition
Procedure, shortened: as §1

IGROV1 = conditions: Homo sapiens, IGROV-1; IGROV1, 10^–5 Molar; read-out: Percent growth inhibition
Procedure, shortened: as §1

U251 = conditions: Homo sapiens, U-251; U251, 10^–5 Molar; read-out: Percent growth inhibition
Procedure, shortened: as §1

HCT-116 = conditions: Homo sapiens; HCT-116, 10^–5 Molar; read-out: Percent growth inhibition
Procedure, shortened: as §1

OVCAR-8 = conditions: Homo sapiens; OVCAR-8, 10^–5 Molar; read-out: Percent growth inhibition
Procedure, shortened: as §1

NCI-H322M = conditions: Homo sapiens, 10^–5 Molar, read-out: Percent growth inhibition
Procedure, shortened: as §1

HCC-2998 = conditions: Homo sapiens; HCC-2998, 10^–5 Molar; read-out: Percent growth inhibition
Procedure, shortened: as §1

KM12 = conditions: Homo sapiens; KM12, 10^–5 Molar; read-out: Percent growth inhibition
Procedure, shortened: as §2

SN12C = conditions: Homo sapiens, 10^–5 Molar, read-out: Percent growth inhibition
Procedure, shortened: as §2

NCI-H522 = conditions: Homo sapiens; NCI-H522, 10^–5 Molar; read-out: Percent growth inhibition
Procedure, shortened: as §1

CCRF-CEM = conditions: Homo sapiens, 10^–5 Molar, read-out: Percent growth inhibition
Procedure, shortened: as §1

ACHN = conditions: Homo sapiens, 10^–5 Molar, read-out: Percent growth inhibition
Procedure, shortened: as §2

melanoma SK-MEL-5 = conditions: Homo sapiens; SK-MEL-5, 10^–5 Molar; read-out: Percent growth inhibition
Procedure, shortened: as §2

leukemia SR = conditions: Homo sapiens; for inhibition at 10 µM: SR, 10^–5 Molar, read-out: Percent growth inhibition
Procedure, shortened: as §1

UACC-62 = conditions: Homo sapiens; UACC-62, 10^–5 Molar; read-out: Percent growth inhibition
Procedure, shortened: as §2

CCn1cc(C(=O)NN=Cc2ccc(Br)cc2)c(=O)c2cc(F)c(N3CCNC(C)C3)c(F)c21 (centres unmarked) [Compound 3c, N'-(4-Bromobenzylidene)-1-ethyl-6,8-difluoro-7-(3-methylpiperazin-1-yl)-4-oxo-1,4-dihydroquinoline-3-carbohydrazide]
inhibition at 10 µM (HCT-15): 119%
inhibition at 10 µM (M14): 57.3%
inhibition at 10 µM (SW-620): 174%
inhibition at 10 µM (EKVX): 13.1%
inhibition at 10 µM (A498): 1.99%
inhibition at 10 µM (PC-3): 31.6%
inhibition at 10 µM (MDA-MB-231/ATCC): 45.2%
inhibition at 10 µM (SF-539): 28.6%
inhibition at 10 µM (RXF 393): 38.8%
inhibition at 10 µM (MCF7): 177%
inhibition at 10 µM (A549/ATCC): 54.7%
inhibition at 10 µM (IGROV1): 28.7%
inhibition at 10 µM (U251): 98.6%
inhibition at 10 µM (HCT-116): 32.3%
inhibition at 10 µM (OVCAR-8): 42.2%
inhibition at 10 µM (NCI-H322M): 14.2%
inhibition at 10 µM (HCC-2998): 74.1%
inhibition at 10 µM (KM12): 52.1%
inhibition at 10 µM (SN12C): 47.8%
inhibition at 10 µM (NCI-H522): 21.5%
inhibition at 10 µM (CCRF-CEM): 70.3%
inhibition at 10 µM (ACHN): 11.2%
inhibition at 10 µM (melanoma SK-MEL-5): 17.6%
inhibition at 10 µM (leukemia SR): 95.7%

CCn1cc(C(=O)NN=Cc2cccs2)c(=O)c2cc(F)c(N3CCNC(C)C3)c(F)c21 (centres unmarked) [Compound 3e, 1-Ethyl-6,8-difluoro-7-(3-methylpiperazin-1-yl)-4-oxo-N'-(thiophen-2-ylmethylene)-1,4-dihydroquinoline-3-carbohydrazide]
inhibition at 10 µM (HCT-15): 75%
inhibition at 10 µM (M14): 50.6%
inhibition at 10 µM (SW-620): 117%
inhibition at 10 µM (EKVX): 65.9%
inhibition at 10 µM (PC-3): 23.7%
inhibition at 10 µM (MDA-MB-231/ATCC): 59%
inhibition at 10 µM (SF-539): 15.8%
inhibition at 10 µM (RXF 393): 83.8%
inhibition at 10 µM (MCF7): 177%
inhibition at 10 µM (A549/ATCC): 56%
inhibition at 10 µM (IGROV1): 33%
inhibition at 10 µM (U251): 46.7%
inhibition at 10 µM (HCT-116): 5.52%
inhibition at 10 µM (OVCAR-8): 56.2%
inhibition at 10 µM (NCI-H322M): 15.9%
inhibition at 10 µM (HCC-2998): 71.4%
inhibition at 10 µM (KM12): 16.5%
inhibition at 10 µM (SN12C): 30%
inhibition at 10 µM (NCI-H522): 28.9%
inhibition at 10 µM (UACC-62): 3.47%
inhibition at 10 µM (CCRF-CEM): 32.8%
inhibition at 10 µM (ACHN): 12.8%
inhibition at 10 µM (melanoma SK-MEL-5): 30.2%
IC50 (leukemia SR; Leukemia SR cells, concentration used for cell cycle and apoptosis tests): 1900 nM
inhibition at 10 µM (leukemia SR): 104%

CCn1cc(C(=O)O)c(=O)c2cc(F)c(N3CCN(CC(=O)Nc4ccccc4)C(C)C3)c(F)c21 (centres unmarked) [Compound 5a, 1-Ethyl-6,8-difluoro-7-(3-methyl-4-(2-oxo-2-(phenylamino)ethyl)piperazin-1-yl)-4-oxo-1,4-dihydroquinoline-3-carboxylic acid]
inhibition at 10 µM (A498): 26.6%
inhibition at 10 µM (PC-3): 6.83%
inhibition at 10 µM (MDA-MB-231/ATCC): 12.9%
inhibition at 10 µM (SF-539): 0.89%
inhibition at 10 µM (MCF7): 7.33%
inhibition at 10 µM (A549/ATCC): 2.07%
inhibition at 10 µM (HCT-116): 0.13%
inhibition at 10 µM (OVCAR-8): 1.7%
inhibition at 10 µM (NCI-H322M): 14.3%
inhibition at 10 µM (HCC-2998): 0.15%
inhibition at 10 µM (KM12): 0.07%
inhibition at 10 µM (NCI-H522): 7.5%
inhibition at 10 µM (UACC-62): 21.8%
inhibition at 10 µM (CCRF-CEM): 3.25%
inhibition at 10 µM (ACHN): 2.19%
inhibition at 10 µM (melanoma SK-MEL-5): 0.76%

CCn1cc(C(=O)O)c(=O)c2cc(F)c(N3CCN(CC(=O)Nc4ccc(Cl)cc4)C(C)C3)c(F)c21 (centres unmarked) [Compound 5b, 7-(4-(2-((4-Chlorophenyl)amino)-2-oxoethyl)-3-methylpiperazin-1-yl)-1-ethyl-6,8-difluoro-4-oxo-1,4-dihydroquinoline-3-carboxylic acid]
inhibition at 10 µM (HCT-15): 1.39%
inhibition at 10 µM (M14): 2.06%
inhibition at 10 µM (SW-620): 1.08%
inhibition at 10 µM (EKVX): 3.04%
inhibition at 10 µM (A498): 27.1%
inhibition at 10 µM (PC-3): 12.1%
inhibition at 10 µM (MDA-MB-231/ATCC): 15.7%
inhibition at 10 µM (SF-539): 4.4%
inhibition at 10 µM (RXF 393): 0.61%
inhibition at 10 µM (MCF7): 10.6%
inhibition at 10 µM (A549/ATCC): 6.12%
inhibition at 10 µM (IGROV1): 0.82%
inhibition at 10 µM (HCT-116): 0.67%
inhibition at 10 µM (OVCAR-8): 7.15%
inhibition at 10 µM (NCI-H322M): 13.8%
inhibition at 10 µM (KM12): 3.94%
inhibition at 10 µM (SN12C): 2.23%
inhibition at 10 µM (NCI-H522): 8.89%
inhibition at 10 µM (UACC-62): 40.8%
inhibition at 10 µM (CCRF-CEM): 2.48%
inhibition at 10 µM (ACHN): 14%
inhibition at 10 µM (melanoma SK-MEL-5): 16.1%

CCn1cc(C(=O)O)c(=O)c2cc(F)c(N3CCN(C(=O)c4ccccc4)C(C)C3)c(F)c21 (centres unmarked) [Compound 7a, 7-(4-Benzoyl-3-methylpiperazin-1-yl)-1-ethyl-6,8-difluoro-4-oxo-1,4-dihydroquinoline-3-carboxylic acid]
inhibition at 10 µM (M14): 9.98%
inhibition at 10 µM (EKVX): 1.21%
inhibition at 10 µM (A498): 19.1%
inhibition at 10 µM (PC-3): 13%
inhibition at 10 µM (MDA-MB-231/ATCC): 16.6%
inhibition at 10 µM (SF-539): 10.7%
inhibition at 10 µM (RXF 393): 6.68%
inhibition at 10 µM (MCF7): 6.26%
inhibition at 10 µM (IGROV1): 3.14%
inhibition at 10 µM (U251): 2.73%
inhibition at 10 µM (OVCAR-8): 4.61%
inhibition at 10 µM (NCI-H322M): 14.4%
inhibition at 10 µM (HCC-2998): 5.26%
inhibition at 10 µM (KM12): 1.89%
inhibition at 10 µM (NCI-H522): 9.08%
inhibition at 10 µM (UACC-62): 25%
inhibition at 10 µM (CCRF-CEM): 2.26%
inhibition at 10 µM (ACHN): 5.78%
inhibition at 10 µM (melanoma SK-MEL-5): 6.55%

CCn1cc(C(=O)O)c(=O)c2cc(F)c(N3CCN(C(=O)c4ccc(Br)cc4)C(C)C3)c(F)c21 (centres unmarked) [Compound 7b, 7-(4-(4-Bromobenzoyl)-3-methylpiperazin-1-yl)-1-ethyl-6,8-difluoro-4-oxo-1,4-dihydroquinoline-3-carboxylic acid]
inhibition at 10 µM (HCT-15): 1.3%
inhibition at 10 µM (SW-620): 0%
inhibition at 10 µM (A498): 13.8%
inhibition at 10 µM (PC-3): 5.63%
inhibition at 10 µM (MDA-MB-231/ATCC): 13.3%
inhibition at 10 µM (SF-539): 9.67%
inhibition at 10 µM (RXF 393): 6.35%
inhibition at 10 µM (MCF7): 8.87%
inhibition at 10 µM (A549/ATCC): 1.07%
inhibition at 10 µM (IGROV1): 5.97%
inhibition at 10 µM (NCI-H322M): 5.64%
inhibition at 10 µM (KM12): 3.51%
inhibition at 10 µM (SN12C): 1.45%
inhibition at 10 µM (NCI-H522): 10%
inhibition at 10 µM (UACC-62): 17.5%
inhibition at 10 µM (ACHN): 2.27%
inhibition at 10 µM (melanoma SK-MEL-5): 1.22%
inhibition at 10 µM (leukemia SR): 1.41%

CCn1cc(C(=O)O)c(=O)c2cc(F)c(N3CCN(C(=O)c4ccc(Cl)cc4)C(C)C3)c(F)c21 (centres unmarked) [Compound 7c, 7-(4-(4-Chlorobenzoyl)-3-methylpiperazin-1-yl)-1-ethyl-6,8-difluoro-4-oxo-1,4-dihydroquinoline-3-carboxylic acid]
inhibition at 10 µM (A498): 19.2%
inhibition at 10 µM (PC-3): 9.65%
inhibition at 10 µM (MDA-MB-231/ATCC): 14.3%
inhibition at 10 µM (SF-539): 5.06%
inhibition at 10 µM (RXF 393): 0.35%
inhibition at 10 µM (MCF7): 9.09%
inhibition at 10 µM (A549/ATCC): 1.75%
inhibition at 10 µM (IGROV1): 1.62%
inhibition at 10 µM (HCT-116): 0.17%
inhibition at 10 µM (NCI-H322M): 7.81%
inhibition at 10 µM (KM12): 0.72%
inhibition at 10 µM (SN12C): 3.15%
inhibition at 10 µM (NCI-H522): 9.51%
inhibition at 10 µM (UACC-62): 18.9%
inhibition at 10 µM (ACHN): 4.45%
inhibition at 10 µM (melanoma SK-MEL-5): 2.21%
inhibition at 10 µM (leukemia SR): 8.55%

CCn1cc(C(=O)O)c(=O)c2cc(F)c(N3CCN(C(=O)c4ccc([N+](=O)[O-])cc4)C(C)C3)c(F)c21 (centres unmarked) [Compound 7d, 1-Ethyl-6,8-difluoro-7-(3-methyl-4-(4-nitrobenzoyl)piperazin-1-yl)-4-oxo-1,4-dihydroquinoline-3-carboxylic acid]
inhibition at 10 µM (A498): 8.25%
inhibition at 10 µM (PC-3): 12%
inhibition at 10 µM (MDA-MB-231/ATCC): 8.63%
inhibition at 10 µM (SF-539): 8.54%
inhibition at 10 µM (MCF7): 5.47%
inhibition at 10 µM (HCT-116): 2.1%
inhibition at 10 µM (NCI-H322M): 12.7%
inhibition at 10 µM (KM12): 1.24%
inhibition at 10 µM (SN12C): 0.88%
inhibition at 10 µM (NCI-H522): 0.62%
inhibition at 10 µM (UACC-62): 10.9%
inhibition at 10 µM (ACHN): 2.14%
inhibition at 10 µM (melanoma SK-MEL-5): 0.86%
inhibition at 10 µM (leukemia SR): 44.8%
